According to PubChem BioAssay (NCI):
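Cultured in 96-well plates, cells were exposed to test compound for 48 hours across five concentrations. The concentration for full growth arrest is given as TGI.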

Each compound was assayed on CCRF-CEM leukemia (assay: NCI tumour cell line growth inhibition, 48 h).

Work on `COC(=O)C1(Cc2ccc3c(c2)CCC3)Cc2ccccc2C1=O` (stereo not given) yielded a TGI of 67.2 µM.

The compounds below were run on SW-620 colon (assay: NCI tumour cell line growth inhibition, 48 h).

`COC(=O)c1cc(C)ccc1CC(Cc1ccc(C)cc1)C(=O)OC` (stereo not given) and `COC(=O)C1(Cc2ccc3c(c2)CCC3)Cc2ccccc2C1=O` (stereo not given) cannot be ordered by TGI: greater than 100 µM for the first, greater than 100 µM for the second.

`Nc1nc(N)nc(CCCc2nc(N)nc(N)n2)n1` and `COc1cc(OCc2ccc3nc(OC)c(OC)nc3c2)cc(OC)c1OC` cannot be ordered by TGI: greater than 100 µM for the first, greater than 10 µM for the second.

`COC(=O)C1(Cc2ccc3c(c2)CCC3)Cc2cc3c(cc2C1)CCC3` and `Cc1cc(/N=C/c2ccc(C#N)cc2)n(-c2ccccc2)n1` cannot be ordered by TGI: greater than 100 µM for the first, greater than 100 µM for the second.

For `CCCOC(=O)NC(C)C(=O)NC(CCC(=O)NC(CCCC(N)C(=O)O)C(=O)NC(C)C(=O)O)C(=O)O` (stereo not given), the TGI was 62.3 µM.

These compounds were tested on SK-MEL-28 melanoma (assay: NCI tumour cell line growth inhibition, 48 h).

Going from `COC(=O)c1cc(C)ccc1CC(Cc1ccc(C)cc1)C(=O)OC` (stereo not given) to `COC(=O)C1(Cc2ccc3c(c2)CCC3)Cc2ccccc2C1=O` (stereo not given), the TGI falls from greater than 100 µM to 40.3 µM.

`Nc1nc(N)nc(CCCc2nc(N)nc(N)n2)n1` and `COc1cc(OCc2ccc3nc(OC)c(OC)nc3c2)cc(OC)c1OC` cannot be ordered by TGI: greater than 100 µM for the first, greater than 10 µM for the second.

`COC(=O)C1(Cc2ccc3c(c2)CCC3)Cc2cc3c(cc2C1)CCC3` and `Cc1cc(/N=C/c2ccc(C#N)cc2)n(-c2ccccc2)n1` cannot be ordered by TGI: greater than 100 µM for the first, greater than 100 µM for the second.

In the case of `CCCOC(=O)NC(C)C(=O)NC(CCC(=O)NC(CCCC(N)C(=O)O)C(=O)NC(C)C(=O)O)C(=O)O` (stereo not given), the TGI is reported as 44.9 µM.

Each compound was assayed on RPMI-8226 leukemia (assay: NCI tumour cell line growth inhibition, 48 h).

Compared with `COC(=O)c1cc(C)ccc1CC(Cc1ccc(C)cc1)C(=O)OC` (stereo not given), `COC(=O)C1(Cc2ccc3c(c2)CCC3)Cc2ccccc2C1=O` (stereo not given) is lower in TGI: greater than 100 µM for the first, 58.7 µM for the second.

`Nc1nc(N)nc(CCCc2nc(N)nc(N)n2)n1` and `COc1cc(OCc2ccc3nc(OC)c(OC)nc3c2)cc(OC)c1OC` cannot be ordered by TGI: greater than 100 µM for the first, greater than 10 µM for the second.

`COC(=O)C1(Cc2ccc3c(c2)CCC3)Cc2cc3c(cc2C1)CCC3` and `Cc1cc(/N=C/c2ccc(C#N)cc2)n(-c2ccccc2)n1` cannot be ordered by TGI: greater than 100 µM for the first, greater than 100 µM for the second.

With `CCCOC(=O)NC(C)C(=O)NC(CCC(=O)NC(CCCC(N)C(=O)O)C(=O)NC(C)C(=O)O)C(=O)O` (stereo not given) the TGI was 32.2 µM.

What follows are compounds tested on IGROV1 ovarian (assay: NCI tumour cell line growth inhibition, 48 h).

`COC(=O)c1cc(C)ccc1CC(Cc1ccc(C)cc1)C(=O)OC` (stereo not given) and `COC(=O)C1(Cc2ccc3c(c2)CCC3)Cc2ccccc2C1=O` (stereo not given) cannot be ordered by TGI: greater than 100 µM for the first, greater than 100 µM for the second.

`Nc1nc(N)nc(CCCc2nc(N)nc(N)n2)n1` and `COc1cc(OCc2ccc3nc(OC)c(OC)nc3c2)cc(OC)c1OC` cannot be ordered by TGI: greater than 100 µM for the first, greater than 10 µM for the second.

`COC(=O)C1(Cc2ccc3c(c2)CCC3)Cc2cc3c(cc2C1)CCC3` and `Cc1cc(/N=C/c2ccc(C#N)cc2)n(-c2ccccc2)n1` cannot be ordered by TGI: greater than 100 µM for the first, greater than 100 µM for the second.

`CCCOC(=O)NC(C)C(=O)NC(CCC(=O)NC(CCCC(N)C(=O)O)C(=O)NC(C)C(=O)O)C(=O)O` (stereo not given) showed a TGI greater than 100 µM.

Each compound was assayed on COLO 205 colon (assay: NCI tumour cell line growth inhibition, 48 h).

Going from `COC(=O)c1cc(C)ccc1CC(Cc1ccc(C)cc1)C(=O)OC` (stereo not given) to `COC(=O)C1(Cc2ccc3c(c2)CCC3)Cc2ccccc2C1=O` (stereo not given), the TGI falls from greater than 100 µM to 30.4 µM.

`Nc1nc(N)nc(CCCc2nc(N)nc(N)n2)n1` and `COc1cc(OCc2ccc3nc(OC)c(OC)nc3c2)cc(OC)c1OC` cannot be ordered by TGI: greater than 100 µM for the first, greater than 10 µM for the second.

`COC(=O)C1(Cc2ccc3c(c2)CCC3)Cc2cc3c(cc2C1)CCC3` and `Cc1cc(/N=C/c2ccc(C#N)cc2)n(-c2ccccc2)n1` cannot be ordered by TGI: greater than 100 µM for the first, greater than 100 µM for the second.

`CCCOC(=O)NC(C)C(=O)NC(CCC(=O)NC(CCCC(N)C(=O)O)C(=O)NC(C)C(=O)O)C(=O)O` (stereo not given) was tested, and the TGI was 48.7 µM.

What follows are compounds tested on NCI/ADR-RES ovarian (assay: NCI tumour cell line growth inhibition, 48 h).

`COC(=O)c1cc(C)ccc1CC(Cc1ccc(C)cc1)C(=O)OC` (stereo not given) and `COC(=O)C1(Cc2ccc3c(c2)CCC3)Cc2ccccc2C1=O` (stereo not given) cannot be ordered by TGI: greater than 100 µM for the first, greater than 100 µM for the second.

`Nc1nc(N)nc(CCCc2nc(N)nc(N)n2)n1` and `COc1cc(OCc2ccc3nc(OC)c(OC)nc3c2)cc(OC)c1OC` cannot be ordered by TGI: greater than 100 µM for the first, greater than 10 µM for the second.

`COC(=O)C1(Cc2ccc3c(c2)CCC3)Cc2cc3c(cc2C1)CCC3` and `Cc1cc(/N=C/c2ccc(C#N)cc2)n(-c2ccccc2)n1` cannot be ordered by TGI: greater than 100 µM for the first, greater than 100 µM for the second.

Work on `CCCOC(=O)NC(C)C(=O)NC(CCC(=O)NC(CCCC(N)C(=O)O)C(=O)NC(C)C(=O)O)C(=O)O` (stereo not given) yielded a TGI of 37 µM.

What follows are compounds tested on HCT-15 colon (assay: NCI tumour cell line growth inhibition, 48 h).

`COC(=O)c1cc(C)ccc1CC(Cc1ccc(C)cc1)C(=O)OC` (stereo not given) and `COC(=O)C1(Cc2ccc3c(c2)CCC3)Cc2ccccc2C1=O` (stereo not given) cannot be ordered by TGI: greater than 77.9 µM for the first, greater than 100 µM for the second.

`Nc1nc(N)nc(CCCc2nc(N)nc(N)n2)n1` and `COc1cc(OCc2ccc3nc(OC)c(OC)nc3c2)cc(OC)c1OC` cannot be ordered by TGI: greater than 100 µM for the first, greater than 10 µM for the second.

`COC(=O)C1(Cc2ccc3c(c2)CCC3)Cc2cc3c(cc2C1)CCC3` and `Cc1cc(/N=C/c2ccc(C#N)cc2)n(-c2ccccc2)n1` cannot be ordered by TGI: greater than 100 µM for the first, greater than 100 µM for the second.

`CCCOC(=O)NC(C)C(=O)NC(CCC(=O)NC(CCCC(N)C(=O)O)C(=O)NC(C)C(=O)O)C(=O)O` (stereo not given) was tested, and the TGI was 34.6 µM.
